Reference: paper PMC6385854, “Structural insights reveal a recognition feature for tailoring hydrocarbon stapled-peptides against the eukaryotic translation initiation factor 4E protein” (Chemical Science, 2019)
Read-outs that look alike come from different tables or passages of the source. Numbered stars: 1 amine (or outer) side, 2 acyl side, 3 side chain; on linkers, the order of the positions; unused ones are H or OH. Bridge positions count the residues as written; N and C are the ends. Square brackets hold non-standard residues; d marks the D form. Peptide text beside a SMILES is read from it. ξ: configuration not given here. ξαMeNle(6-ylidene) = CC(CCCC=[*:3])(N[*:1])C(=O)[*:2]; R5 = C=CCCC[C@@](C)(N)C(=O)O; S5 = C=CCCC[C@](C)(N)C(=O)O

What was measured:
eIF4E = conditions: small molecule inhibitor of the eIF4E/eIF4G interaction; cited from earlier work
Excerpt: We have previously used structure-based rational design and optimization strategies to develop the first generation of hydrocarbon stapled-peptides against eIF4E.[20] These are the only compounds currently reported in the literature that are able to bind to the protein-binding interface of eIF4E with nanomolar affinity. […] Moreover, it was recently shown that 4EGI-1 binds to a non-canonical site on eIF4E and allosterically regulates the binding prop ... || The previously optimized 12mer stapled-peptide (sTIP-04: ^1KKRYSR*QLL*L^12)[20] (Fig. 1) was used as a template for the derivation of two different i, i + 4 hydrocarbon stapled-peptides: (i) (sTIP-05: ^1KKRYSR*QLL*F^12) with an L12F substitution at the C-terminus and, (ii) (sTIP-06: ^1RIIYSR*QLL*L^12) with an “RII^3” substitution at the N-terminus, based on the 4EBP protein epitope.[12] These derivatives were designed to incorporate different chemical features with the anticipation to induce favorable cellular activity. Both peptides were synthesized and their binding affinity for eIF4E was de ...

[1] = target: T1, Human recombinant eIF4E protein (Homo sapiens, UniProt P06730); assay: Surface plasmon resonance binding of stapled-peptides to immobilized eIF4E; conditions: SPR; for kon: eIF4E (His tag or w/o tag) amine-coupled on CM5 chip, saturated with m7GTP, peptides 3 μM to 1.372 nM, 60 s injection, 120 s dissociation
T1 construct: V28-V217; made in house; host or cells: Escherichia coli BL21 (DE3)
T1 sequence (P06730 28-217): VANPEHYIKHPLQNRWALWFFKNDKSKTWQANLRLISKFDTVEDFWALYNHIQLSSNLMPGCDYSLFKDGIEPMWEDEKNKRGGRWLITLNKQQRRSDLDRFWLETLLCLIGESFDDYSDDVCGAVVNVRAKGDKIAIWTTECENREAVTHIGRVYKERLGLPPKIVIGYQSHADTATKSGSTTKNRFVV
Protocol: Human recombinant eIF4E protein with His tag (eIF4E-His) and without tag (eIF4E w/o tag) were separately immobilized on a CM5 sensor chip through amine coupling using the same protocol. Each flow cell of a CM5 sensor chip was first activated by a 7 min injection (10 μl min^–1) of freshly prepared 1 : 1 50 mM NHS : 200 mM EDC. Diluted eIF4E in NaAc (pH 5.0), with m^7GTP present in ≥2 : 1 ratio to saturate eIF4E, was injected over the sensor chip surface at a flow rate of 10 μl min^–1. The remaining active coupling sites were blocked with a 7 min injection of 1 M ethanolamine at 10 μl min^–1. The immobilization level is ∼2500 RU for eIF4E w/o tag and ∼5000 RU for eIF4E-His separately. Running buffer for immobilization was HBS-EP+ (10 mM HEPES, 150 mM NaCl, 3 mM EDTA, 0.05% surfactant P20).
Before measurement, the system was primed with assay running buffer HBS-EP+ (10 mM HEPES, 150 mM NaCl, 3 mM EDTA, 0.05% surfactant P20), with 1 mM DTT and 3% DMSO. Peptides were prepared by 3-fold dilution from high concentration to low concentration (3 μM to 1.372 nM). Peptides at increasing concentrations were injected over the chip surface for 60 s. The exposure was followed by a dissociation phase of 120 s. The flow rate was 30 μl min^–1. Surface regeneration was done using 2 M NaCl 30 s at 30 μl min^–1. Each reaction cycle ended with 50% DMSO extra wash. The solvent correction curve was setup by adding varying amounts of 100% DMSO to 1.03× running buffer to generate a range of DMSO solutions (2.000%, 2.286%, 2.571%, 2.857%, 3.143%, 3.429%, 3.714% and 4.000% respectively). After removing reference (blank buffer) signal and adding solvent correction, kinetics and/or steady-state parameters were calculated with Biacore T200 evaluation software ver. 3.0.

[2] = Biacore T200, HBS-EP+ with 1 mM DTT, 3% DMSO, mean ± SEM from at-least two independent experiments, SEM, read-out: k on
[3] = Biacore T200, eIF4E on CM5 chip, m7GTP, HBS-EP+ with 1 mM DTT, 3% DMSO, mean ± SEM from at-least two independent experiments, SEM, read-out: K D, binding affinity (kinetic KD) measured as a ratio of koff/kon
[4] = Biacore T200, eIF4E on CM5 chip, m7GTP, HBS-EP+ with 1 mM DTT, 3% DMSO, mean ± SEM from at-least two independent experiments, SEM, read-out: k off
[5] = mean ± SEM from at-least two independent experiments
[6] = mean ± SEM from at-least two independent experiments, SEM
[7] = Biacore T200, HBS-EP+ with 1 mM DTT, 3% DMSO, mean ± SEM from at-least two independent experiments, SEM
[8] = Biacore T200, eIF4E on CM5 chip, m7GTP, HBS-EP+ with 1 mM DTT, 3% DMSO, mean ± SEM from at-least two independent experiments, SEM
[9] = Biacore T200, eIF4E on CM5 chip, m7GTP, HBS-EP+ with 1 mM DTT, 3% DMSO, mean ± SEM from at-least two independent experiments, read-out: K D, binding affinity (kinetic KD) measured as a ratio of koff/kon

Molecule	kon [1, 2] [M⁻¹ s⁻¹]	Kd [1, 3] [nM]	koff [1, 4] [s⁻¹]	RT, Residence Time measured as 1/koff [1, 5] [s]	RT, Residence Time measured as 1/koff [1, 6] [s]	kon [1, 7]	K D, binding affinity (kinetic KD) measured as a ratio of koff/kon [1, 8] [nM]	koff [1, 8]	also measured
O=C(O)C(Cc1ccccc1[N+](=O)[O-])=NNc1nc(-c2ccc(Cl)c(Cl)c2)cs1 (mixture of isomers) [Peptide 4EGI-1, 4EGI-1]	–	–	–	–	–	–	–	–	Affinity for eIF4E (eIF4E): micromolar range
O=C(O)c1ccc(N2C(=O)/C(=C\c3ccc(-c4ccc([N+](=O)[O-])cc4)o3)C=C2c2ccccc2)cc1 [Peptide 4E1RCat, 4E1RCat]	–	–	–	–	–	–	–	–	Affinity for eIF4E (eIF4E): micromolar range
CC(=O)N[C@@H](CCCCN)C(=O)N[C@@H](CCCCN)C(=O)N[C@@H](CCCNC(=N)N)C(=O)N[C@@H](Cc1ccc(O)cc1)C(=O)N[C@@H](CO)C(=O)N[C@@H](CCCNC(=N)N)C(=O)N[C@]1(C)CCCC=CCCC[C@](C)(C(=O)N[C@@H](Cc2ccccc2)C(N)=O)NC(=O)[C@H](CC(C)C)NC(=O)[C@H](CC(C)C)NC(=O)[C@H](CCC(N)=O)NC1=O [sTIP-05] (Ac-KKRYSR[R5]QLL[R5]F-NH2; staple 7-11)	1.5e+07	6.6 ± 0.7	0.094 ± 8e-05	10	10.8 ± 0.9	–	–	–	–
CC(=O)N[C@@H](CCCCN)C(=O)N[C@@H](CCCCN)C(=O)N[C@@H](CCCNC(=N)N)C(=O)N[C@@H](Cc1ccc(O)cc1)C(=O)N[C@@H](CO)C(=O)N[C@@H](CCCNC(=N)N)C(=O)N[C@@]1(C)CCCC=CCCC[C@@](C)(C(=O)N[C@@H](Cc2ccccc2)C(=O)N[C@@H](Cc2c[nH]c3ccccc23)C(N)=O)NC(=O)[C@H](CC(C)C)NC(=O)[C@H](CC(C)C)NC(=O)[C@H](CCC(N)=O)NC1=O [sTIP-07] (Ac-KKRYSR[S5]QLL[S5]FW-NH2; staple 7-11)	650000 ± 3e+09	42.5 ± 0.5	0.028 ± 1e-05	–	36.3 ± 1.0	–	–	–	–
CC(=O)N[C@@H](CCCCN)C(=O)N[C@@H](CCCCN)C(=O)N[C@@H](CCCNC(=N)N)C(=O)N[C@@H](Cc1ccc(O)cc1)C(=O)N[C@@H](CO)C(=O)N[C@@H](CCCNC(=N)N)C(=O)N[C@@]1(C)CCCC=CCCC[C@@](C)(C(=O)N[C@@H](Cc2ccccc2)C(=O)N[C@@H](CCCNC(=N)N)C(=O)N[C@@H](CCCNC(=N)N)C(=O)N[C@@H](CCCNC(=N)N)C(N)=O)NC(=O)[C@H](CC(C)C)NC(=O)[C@H](CC(C)C)NC(=O)[C@H](CCC(N)=O)NC1=O [sTIP-09] (Ac-KKRYSR[S5]QLL[S5]FRRR-NH2; staple 7-11)	2.2e+06 ± 3e+11	7.8 ± 1.9	0.016 ± 3e-05	68	68.8 ± 13.8	–	–	–	–
CC(=O)N[C@@H](CCCCN)C(=O)N[C@@H](CCCCN)C(=O)N[C@@H](CCCNC(=N)N)C(=O)N[C@@H](Cc1ccc(O)cc1)C(=O)N[C@@H](CO)C(=O)N[C@@H](CCCNC(=N)N)C(=O)N[C@@H](CCC(=O)O)C(=O)N[C@@H](CCC(N)=O)C(=O)N[C@@H](CC(C)C)C(=O)N[C@@H](CC(C)C)C(=O)N[C@@]1(C)CCCC=CCCC[C@@](C)(C(N)=O)NC(=O)[C@H](CCCNC(=N)N)NC(=O)[C@H](CCC(N)=O)NC(=O)[C@H](Cc2ccccc2)NC1=O [sTIP-10] (Ac-KKRYSREQLL[S5]FQR[S5]-NH2; staple 11-15)	6.6e+06 ± 1e+11	4.3 ± 0.4	0.026 ± 5e-05	39	39.7 ± 3.1	–	–	–	–
CC(=O)N[C@@H](CCCNC(=N)N)C(=O)N[C@@H](Cc1ccc(O)cc1)C(=O)N[C@@H](CO)C(=O)N[C@@H](CCCNC(=N)N)C(=O)NC1(C)CCCC=CCCCC(C)(C(=O)N[C@@H](Cc2ccccc2)C(N)=O)NC(=O)[C@H](CC(C)C)NC(=O)[C@H](CC(C)C)NC(=O)[C@H](CCC(N)=O)NC1=O (some centres unmarked) [sTIP-12] (Ac-RYSR[ξαMeNle(6-ylidene)]QLL[ξαMeNle(6-ylidene)]F-NH2; staple 5-9)	420000 ± 1.9e+10	397 ± 131	0.14 ± 0.002	–	7.1 ± 1.0	–	–	–	–
CC(=O)N[C@@H](Cc1ccc(O)cc1)C(=O)N[C@@H](CO)C(=O)N[C@@H](CCCNC(=N)N)C(=O)NC1(C)CCCC=CCCCC(C)(C(=O)N[C@@H](Cc2ccccc2)C(N)=O)NC(=O)[C@H](CC(C)C)NC(=O)[C@H](CC(C)C)NC(=O)[C@H](CCC(N)=O)NC1=O (some centres unmarked) [sTIP-13] (Ac-YSR[ξαMeNle(6-ylidene)]QLL[ξαMeNle(6-ylidene)]F-NH2; staple 4-8)	–	–	–	–	–	–	–	–	Kd ([1]; Binding affinity estimated (micromolar range), range over two independent experiments): 4000 to 36000 nM; Kd ([1]; sensogram traces Fig. S2 E, F, experiment 1, read-out: Binding affinity estimated, first of two independent SPR experiments): 4000 nM; Kd ([1]; sensogram traces Fig. S2 E, F, experiment 2, read-out: Binding affinity estimated, second of two independent SPR experiments): 36000 nM
CC(=O)N[C@@H](CCCNC(=N)N)C(=O)N[C@@H](Cc1ccc(O)cc1)C(=O)N[C@@H](CO)C(=O)N[C@@H](CCCNC(=N)N)C(=O)N[C@@]1(C)CCCC=CCCC[C@@](C)(C(=O)N[C@@H](CC(C)C)C(=O)N[C@@H](Cc2ccccc2)C(=O)N[C@@H](CCCNC(=N)N)C(N)=O)NC(=O)[C@H](CC(C)C)NC(=O)[C@H](CC(C)C)NC(=O)[C@H](CCC(N)=O)NC1=O [sTIP-14] (Ac-RYSR[S5]QLL[S5]LFR-NH2; staple 5-9)	340000 ± 1.6e+10	195 ± 49.7	0.058 ± 0.00014	–	18.3 ± 4.5	–	–	–	Improvement in KD over sTIP-12 ([1]; relative to sTIP-12): 2 fold; Reduction in rate of dissociation (koff) over sTIP-12 ([1]; relative to sTIP-12): 2 fold
Ac-KRYSR*QLL*F-NH2 (sidechain bridge or staple) [sTIP-11, sTIP-05 with K1 deleted]	–	–	–	–	2.3 ± 0.6	2.3 ± 0.9 × 10^7 M^–1 s^–1	21.9 ± 3.8	4.6 ± 1.2 × 10^–1 s^–1	Binding to eIF4E in words (effect of N-terminal deletion from sTIP-05) ([1]; sequential deletion of the 1KKR3 sequence): little effect on binding
Ac-RIIYSR*QLL*L&-NH2 (sidechain bridge or staple) [sTIP-08, 13mer stapled-peptide, sTIP-06 extended with Lys(ButPhI)]	–	–	–	–	35.5 ± 1.3	6.2 ± 0.2 × 10^5 M^–1 s^–1	45.2 ± 0.6	2.8 ± 0.1 × 10^–2 s^–1	–
Ac-RIIYSR*QLL*L-NH2 (sidechain bridge or staple) [sTIP-06]	–	–	–	6	6.0 ± 2.4	2.7 ± 0.7 × 10^8 M^–1 s^–1	0.8 ± 0.1	2.2 ± 0.8 × 10^–1 s^–1	Kd [1, 9]: 0.8 nM
Ac-RYSREQLL*FQR*-NH2 (sidechain bridge or staple) [sTIP-15]	–	–	–	–	6.7 ± 4.1	4.2 ± 2.3 × 10^6 M^–1 s^–1	54.8 ± 6.4	2.4 ± 1.5 × 10^–1 s^–1	Kd [1, 9]: 54 nM; Improvement in KD over sTIP-12 ([1]; relative to sTIP-12): 7 fold; Improvement in rate of association (kon) over sTIP-12 ([1]; relative to sTIP-12): 10 fold
